For one experiment, the system named is MOLT-3. Kind of experiment: Anti-leukemic activity against Molt-3 (T-lineage ALL, human acute lymphoblastic leukemia) cell line. In kind it is functional, cell-based.
In a further experiment the test system is NALM-6. Kind of experiment: Anti-leukemic activity against Nalm-6 (B-lineage ALL, human acute lymphoblastic leukemia) cell line. In kind it is functional, cell-based.

A value given as a limit tells only on which side of the number the result lay.

As for `CCCCCCCSC[C@H](NC(C)=O)C(=O)CCl`, the IC50 – broadly, the concentration needed to halve the response being measured – in the experiment on MOLT-3 came out at 2.5 µM; with NALM-6 it was 4.8 µM.
The matching figures for `CCCCCCCCCCCCCCCCCCCCCCSC[C@H](NC(C)=O)C(=O)CCl`: greater than 100 µM and greater than 100 µM.
Consider `CCCCCSC[C@H](NC(C)=O)C(=O)CCl`, for which the IC50 in the experiment on MOLT-3 worked out at 5.4 µM; in the experiment with NALM-6 it was 5.8 µM.
The matching figures for `CCCCSC[C@H](NC(C)=O)C(=O)CCl`: 5.6 µM and 41.4 µM.
For `CCCSC[C@H](NC(C)=O)C(=O)CCl` the same measures were 8 µM and 6.9 µM.
With `CCCCCCSC[C@H](NC(C)=O)C(=O)CCl`, the values for the IC50 in the experiment with MOLT-3 and with NALM-6 were 0.7 µM and 3.3 µM, respectively.
On to `CCCCCCCCCCCCCCSC[C@H](NC(C)=O)C(=O)CCl`, for which the IC50 in the experiment with MOLT-3 was 8.8 µM; with NALM-6, 8.7 µM.
For `CCCCCCCCCCCCCCCSC[C@H](NC(C)=O)C(=O)CCl` the same measures were 8.6 µM and 8.9 µM.
In the case of `CCCCCCCCCCCCCCCCCCCCSC[C@H](NC(C)=O)C(=O)CCl`, the IC50 in the experiment with MOLT-3 and with NALM-6 was greater than 100 µM each time.
Take `CCCCCCCCCCSC[C@H](NC(C)=O)C(=O)CCl`: the IC50 is 3.4 µM in the experiment with MOLT-3 and 4.7 µM with NALM-6.
For `CCCCCCCCCCCCCSC[C@H](NC(C)=O)C(=O)CCl` the same measures were greater than 100 µM and greater than 100 µM.
The matching figures for `CCCCCCCCCCCSC[C@H](NC(C)=O)C(=O)CCl`: 3 µM and 1.7 µM.
Regarding `CCCCCCCCCCCCCCCCCCSC[C@H](NC(C)=O)C(=O)CCl`, the IC50 in the experiment with MOLT-3 and in the experiment with NALM-6 was greater than 100 µM throughout.
On to `CCCCCCCCSC[C@H](NC(C)=O)C(=O)CCl`, for which the IC50 in the experiment on MOLT-3 came out at 4.1 µM; with NALM-6, 5.6 µM.
For `CCCCCCCCCSC[C@H](NC(C)=O)C(=O)CCl` the same measures were 6.7 µM and 7.3 µM.
For `CCCCCCCCCCCCCCCCSC[C@H](NC(C)=O)C(=O)CCl` the same measures were 17.3 µM and 16 µM.
On to `CSC[C@H](NC(C)=O)C(=O)CCl`, for which the 50% inhibitory concentration (IC50) with MOLT-3 was 80.8 µM; in the experiment on NALM-6, 30.3 µM.
For the molecule `CCSC[C@H](NC(C)=O)C(=O)CCl`, the half-maximal inhibitory concentration (IC50) in the experiment with MOLT-3 was determined as 99.9 µM; in the experiment with NALM-6, 52.8 µM.

Values taken from ChEMBL document CHEMBL1133422, “The S-alkyl chain length as a determinant of the anti-leukemic activity of cysteine chloromethyl ketone compounds” (Bioorg Med Chem Lett, 2000).
